# Test results as given in PubChem BioAssay (NCI).
#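 Exposure lasted 48 hours, with cells grown in 96-well plates and compounds tested at five concentrations. Here, GI50 denotes the concentration required for 50% inhibition of growth. Definition used: TGI = concentration required for complete inhibition of growth.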
# Key:
# Test in all cases: growth of human tumour cells (NCI), 48 h
# SK-OV-3 ovarian = tested on: SK-OV-3 ovarian
# MOLT-4 leukemia = tested on: MOLT-4 leukemia
# K-562 leukemia = tested on: K-562 leukemia
# RPMI-8226 leukemia = tested on: RPMI-8226 leukemia
# ACHN renal = tested on: ACHN renal
# DU-145 prostate = tested on: DU-145 prostate
# T-47D breast = tested on: T-47D breast
# CCRF-CEM leukemia = tested on: CCRF-CEM leukemia
# RXF 393 renal = tested on: RXF 393 renal
# OVCAR-8 ovarian = tested on: OVCAR-8 ovarian
# HOP-92 NSCLC = tested on: HOP-92 NSCLC
# OVCAR-5 ovarian = tested on: OVCAR-5 ovarian
# SN12C renal = tested on: SN12C renal
# MALME-3M melanoma = tested on: MALME-3M melanoma
# NCI-H522 lung = tested on: NCI-H522 lung
# UACC-62 melanoma = tested on: UACC-62 melanoma
# SK-MEL-28 melanoma = tested on: SK-MEL-28 melanoma
# NCI/ADR-RES ovarian = tested on: NCI/ADR-RES ovarian
# UACC-257 melanoma = tested on: UACC-257 melanoma
# NCI-H460 lung = tested on: NCI-H460 lung
# IGROV1 ovarian = tested on: IGROV1 ovarian
# MCF7 breast = tested on: MCF7 breast
# A549 NSCLC = tested on: A549 NSCLC
# SK-MEL-5 melanoma = tested on: SK-MEL-5 melanoma
# OVCAR-3 ovarian = tested on: OVCAR-3 ovarian
# SF-268 CNS = tested on: SF-268 CNS
# BT-549 breast = tested on: BT-549 breast
# MDA-MB-435 = tested on: MDA-MB-435
# TK-10 renal = tested on: TK-10 renal
# HT29 colon = tested on: HT29 colon
# HS 578T breast = tested on: HS 578T breast
# SNB-75 CNS = tested on: SNB-75 CNS
# KM12 colon = tested on: KM12 colon
# CAKI-1 renal = tested on: CAKI-1 renal
# M14 melanoma = tested on: M14 melanoma
# SW-620 colon = tested on: SW-620 colon
# MDA-MB-231 breast = tested on: MDA-MB-231 breast
# A498 renal = tested on: A498 renal
# HCT-15 colon = tested on: HCT-15 colon
# SF-295 CNS = tested on: SF-295 CNS
# HCT-116 colon = tested on: HCT-116 colon
# LOX IMVI melanoma = tested on: LOX IMVI melanoma
# COLO 205 colon = tested on: COLO 205 colon
# NCI-H23 lung = tested on: NCI-H23 lung
# SNB-19 CNS = tested on: SNB-19 CNS
# SR leukemia = tested on: SR leukemia
# 786-0 renal = tested on: 786-0 renal
# PC-3 prostate = tested on: PC-3 prostate
# HL-60(TB) leukemia = tested on: HL-60(TB) leukemia
# UO-31 renal = tested on: UO-31 renal
# HCC-2998 colon = tested on: HCC-2998 colon
# HOP-62 NSCLC = tested on: HOP-62 NSCLC
# U251 CNS = tested on: U251 CNS
# OVCAR-4 ovarian = tested on: OVCAR-4 ovarian
# NCI-H226 lung = tested on: NCI-H226 lung
# SK-MEL-2 melanoma = tested on: SK-MEL-2 melanoma
smiles,measurement,setting,value
CCCCCCCCCCCCCCNc1nc(C(=O)OCC)ncc1-c1ccc(C(F)(F)F)cc1,GI50,SK-OV-3 ovarian,> 100 µM
same,TGI,SK-OV-3 ovarian,> 100 µM
same,GI50,MOLT-4 leukemia,> 100 µM
same,TGI,MOLT-4 leukemia,> 100 µM
same,GI50,K-562 leukemia,> 100 µM
same,TGI,K-562 leukemia,> 100 µM
same,GI50,RPMI-8226 leukemia,> 100 µM
same,TGI,RPMI-8226 leukemia,> 100 µM
same,GI50,ACHN renal,> 100 µM
same,TGI,ACHN renal,> 100 µM
same,GI50,DU-145 prostate,> 100 µM
same,TGI,DU-145 prostate,> 100 µM
same,GI50,T-47D breast,> 100 µM
same,TGI,T-47D breast,> 100 µM
same,GI50,CCRF-CEM leukemia,> 100 µM
same,TGI,CCRF-CEM leukemia,> 100 µM
same,GI50,RXF 393 renal,> 100 µM
same,TGI,RXF 393 renal,> 100 µM
same,GI50,OVCAR-8 ovarian,> 100 µM
same,TGI,OVCAR-8 ovarian,> 100 µM
same,GI50,HOP-92 NSCLC,> 100 µM
same,TGI,HOP-92 NSCLC,> 100 µM
same,GI50,OVCAR-5 ovarian,> 100 µM
same,TGI,OVCAR-5 ovarian,> 100 µM
same,GI50,SN12C renal,> 100 µM
same,TGI,SN12C renal,> 100 µM
same,GI50,MALME-3M melanoma,> 100 µM
same,TGI,MALME-3M melanoma,> 100 µM
same,GI50,NCI-H522 lung,> 100 µM
same,TGI,NCI-H522 lung,> 100 µM
same,GI50,UACC-62 melanoma,> 100 µM
same,TGI,UACC-62 melanoma,> 100 µM
same,GI50,SK-MEL-28 melanoma,> 100 µM
same,TGI,SK-MEL-28 melanoma,> 100 µM
same,GI50,NCI/ADR-RES ovarian,> 100 µM
same,TGI,NCI/ADR-RES ovarian,> 100 µM
same,GI50,UACC-257 melanoma,> 100 µM
same,TGI,UACC-257 melanoma,> 100 µM
same,GI50,NCI-H460 lung,> 100 µM
same,TGI,NCI-H460 lung,> 100 µM
same,GI50,IGROV1 ovarian,> 100 µM
same,TGI,IGROV1 ovarian,> 100 µM
same,GI50,MCF7 breast,> 100 µM
same,TGI,MCF7 breast,> 100 µM
same,GI50,A549 NSCLC,> 100 µM
same,TGI,A549 NSCLC,> 100 µM
same,GI50,SK-MEL-5 melanoma,> 100 µM
same,TGI,SK-MEL-5 melanoma,> 100 µM
same,GI50,OVCAR-3 ovarian,> 100 µM
same,TGI,OVCAR-3 ovarian,> 100 µM
same,GI50,SF-268 CNS,> 100 µM
same,TGI,SF-268 CNS,> 100 µM
same,GI50,BT-549 breast,> 100 µM
same,TGI,BT-549 breast,> 100 µM
same,GI50,MDA-MB-435,> 100 µM
same,TGI,MDA-MB-435,> 100 µM
same,GI50,TK-10 renal,> 100 µM
same,TGI,TK-10 renal,> 100 µM
same,GI50,HT29 colon,> 100 µM
same,TGI,HT29 colon,> 100 µM
same,GI50,HS 578T breast,> 100 µM
same,TGI,HS 578T breast,> 100 µM
same,GI50,SNB-75 CNS,> 100 µM
same,TGI,SNB-75 CNS,> 100 µM
same,GI50,KM12 colon,> 100 µM
same,TGI,KM12 colon,> 100 µM
same,GI50,CAKI-1 renal,> 100 µM
same,TGI,CAKI-1 renal,> 100 µM
same,GI50,M14 melanoma,> 100 µM
same,TGI,M14 melanoma,> 100 µM
same,GI50,SW-620 colon,> 100 µM
same,TGI,SW-620 colon,> 100 µM
same,GI50,MDA-MB-231 breast,> 100 µM
same,TGI,MDA-MB-231 breast,> 100 µM
same,GI50,A498 renal,> 100 µM
same,TGI,A498 renal,> 100 µM
same,GI50,HCT-15 colon,> 100 µM
same,TGI,HCT-15 colon,> 100 µM
same,GI50,SF-295 CNS,> 100 µM
same,TGI,SF-295 CNS,> 100 µM
same,GI50,HCT-116 colon,> 100 µM
same,TGI,HCT-116 colon,> 100 µM
same,GI50,LOX IMVI melanoma,> 100 µM
same,TGI,LOX IMVI melanoma,> 100 µM
same,GI50,COLO 205 colon,> 100 µM
same,TGI,COLO 205 colon,> 100 µM
same,GI50,NCI-H23 lung,> 100 µM
same,TGI,NCI-H23 lung,> 100 µM
same,GI50,SNB-19 CNS,> 100 µM
same,TGI,SNB-19 CNS,> 100 µM
same,GI50,SR leukemia,> 100 µM
same,TGI,SR leukemia,> 100 µM
same,GI50,786-0 renal,> 100 µM
same,TGI,786-0 renal,> 100 µM
same,GI50,PC-3 prostate,27.5 µM
same,TGI,PC-3 prostate,> 100 µM
same,GI50,HL-60(TB) leukemia,> 100 µM
same,TGI,HL-60(TB) leukemia,> 100 µM
same,GI50,UO-31 renal,> 100 µM
same,TGI,UO-31 renal,> 100 µM
same,GI50,HCC-2998 colon,> 100 µM
same,TGI,HCC-2998 colon,> 100 µM
same,GI50,HOP-62 NSCLC,> 100 µM
same,TGI,HOP-62 NSCLC,> 100 µM
same,GI50,U251 CNS,> 100 µM
same,TGI,U251 CNS,> 100 µM
same,GI50,OVCAR-4 ovarian,48.1 µM
same,TGI,OVCAR-4 ovarian,> 100 µM
same,GI50,NCI-H226 lung,> 100 µM
same,TGI,NCI-H226 lung,> 100 µM
same,GI50,SK-MEL-2 melanoma,> 100 µM
same,TGI,SK-MEL-2 melanoma,> 100 µM
